The values that follow come from patent publication US20130330756A1, “DETECTION OF BACTERIA EXHIBITING ENZYMATIC RESISTANCE TO CARBAPENEMS” (BIOMERIEUX, priority 2011, published 2013).

Like-named read-outs stand apart in the source and are kept apart here. Peptide text beside a SMILES is read from it. * marks the point of attachment. βNA = c1ccc2cc(N*)ccc2c1 Where only a bound is given, the exact number is not on record here.

The subject of assay [1] is Citrobacter IR strain. The assay can be described thus: Ertapenem E-test MIC, IR Citrobacter strain. The conditions noted are these: cloxacillin 200 mg/l and/or PAbetaN 25 mg/l, vs medium without either. Format: cell-based, Citrobacter freundii. On the procedure: (§1) The effect of cloxacillin and PAbetaN on the MICs of the strains with ertapenem was evaluated firstly using E-test® strips in Mueller Hinton medium. […] The second test consisted in evaluating the impact of these 2 compounds on the MICs with ertapenem of 29 carbapenemases-producing strains (+1 ESBL).
(§2) Test B100904: the 19 impermeability-resistant (IR) strains belong to the following species: 10 Enterobacter aerogenes, 2 Enterobacter cloacae, 1 Citrobacter freundii, 1 Pseudomonas aeruginosa, 3 Proteus mirabilis and 2 Morganella morganii.
(§3) The E-tests were performed in Mueller-Hinton medium supplemented or not supplemented with cloxacillin and/or PAbetaN according to Table I:
(§4) 2. Test • Production for each strain of an approximately 0.5 McF suspension in a 0.85% NaCl ampule. • Seeding of the 4 media by semi-automatic swabbing. • Drying of the dishes at ambient temperature for 5 to 15 min. • Application of the ertapenem E-test® strip. • Incubation for 16 to 20 hours at 37° C.

The subject of assay [2] is Morganella IR strains. The assay is described as follows: Ertapenem E-test MIC, IR Morganella strains. Format: cell-based, Morganella morganii. The note with it: cloxacillin 200 mg/l and/or PAbetaN 25 mg/l, vs medium without either. On the procedure: as §1, §2, §3, §4
Assay [3] relates to 19 impermeability-resistant (IR) strains. The assay is described as follows: Ertapenem E-test MIC, all 19 IR strains (TOTAL). Type of assay: cell-based. The note with it: for number of strains: >2 MIC steps impact on ertapenem MIC / number of strains: No impact on ertapenem MIC / number of strains: ≦2 MIC steps impact on ertapenem MIC: TOTAL of 19 IR strains, cloxacillin 200 mg/l and/or PAbetaN 25 mg/l, vs medium without either. On the procedure: as §1, §2, §3, §4

For assay [4], the system named is carbapenemase-producing strains. The assay is described as follows: Agar dilution growth on chromogenic media with faropenem, carbapenemase-producing strains. Type of assay: cell-based. On the procedure: (§5) Seventy-seven strains of Gram-negative bacteria, of which 71 are enterobacteria and 6 non-enterobacteria (non-fermenting bacteria), whose resistance characteristics are set out in Table IV, were tested on media containing different concentrations of faropenem and cloxacillin, with or without PAbetaN, in order to establish the sensitivity and the specificity of each formulation. The tested media are described in Table V.
(§6) The chromogenic media are divided into 120×120 square dishes.
(§7) The seeding is performed from 24-h pre-cultures at 37° C. on trypcase soy agar. For each strain, a 0.5 McF suspension in physiological water is produced. Each suspension is spot-seeded (1 to 2 μL) on each medium with the aid of a multi-point inoculator according to the Agar Dilution (AD) method. Readings are performed after 24 hours of incubation at 37° C.
(§8) An absence of bacterial growth or a number of colonies which is less than or equal to 3 are considered as corresponding to a growth inhibition. The presence of 4 colonies or more is considered to be positive growth.
(Agar dilution tests growth on a series of plates holding different concentrations.)

The test system is the same in assay [5]. Type of assay: cell-based. On the procedure: as §1
(§9) Test B101001: twenty-nine carbapenemase-producing strains divided as follows: 27 Klebsiella pneumoniae strains producing class A KPC carbapenemase (KPC), and 2 strains respectively of Klebsiella pneumoniae and Citrobacter freundii which produce class-B carbapenemase (NDM-1). This test also comprised an ESBL Escherichia coli strain.
as §3, §4

Assay [6] has as its system class-B carbapenemase (NDM-1) producing strains. The assay is described as follows: Ertapenem E-test MIC, NDM-1 strains. Format: cell-based, Klebsiella pneumoniae, Citrobacter freundii. The note with it: cloxacillin 200 mg/l and/or PAbetaN 25 mg/l, vs medium without either. As for the experimental part:
as §1, §9, §3, §4

Assay [7] has as its system Pseudomonas IR strain. The assay is described as follows: Ertapenem E-test MIC, IR Pseudomonas strain. Type of assay: cell-based, Pseudomonas aeruginosa. On the procedure:
as §1, §2, §3, §4

Assay [8] concerns Enterobacter IR strains. The assay can be described thus: Ertapenem E-test MIC, impermeability-resistant (IR) Enterobacter strains. Type of assay: cell-based, Enterobacter aerogenes, Enterobacter cloacae. The note with it: for number of strains: >2 MIC steps impact on ertapenem MIC / number of strains: No impact on ertapenem MIC: Enterobacter IR strains, Mueller Hinton, cloxacillin 200 mg/l and/or PAbetaN 25 mg/l, vs medium without either; for MIC with ertapenem: E. aerogenes strain 9306074. As for the experimental part:
as §1, §2, §3, §4

Assay [9] relates to ESBL Escherichia coli strain. The assay is described as follows: Ertapenem E-test MIC, ESBL strain. Type of assay: cell-based. The note with it: cloxacillin 200 mg/l and/or PAbetaN 25 mg/l, vs medium without either. As for the experimental part: as §1, §9, §3, §4
For assay [10], the system named is 19 IR strains. The assay is described as follows: Agar dilution growth on chromogenic media with faropenem, IR strains. Format: cell-based. The note with it: for additional IR strains inhibited: faropenem 16 mg/L. As for the experimental part: as §5, §6, §7, §8
Assay [11] concerns Proteus IR strains. The assay can be described thus: Ertapenem E-test MIC, IR Proteus strains. Type of assay: cell-based, Proteus mirabilis. The conditions noted are these: cloxacillin 200 mg/l and/or PAbetaN 25 mg/l, vs medium without either. As for the experimental part:
as §1, §2, §3, §4

Assay [12] has as its system class A KPC carbapenemase producing strains. The assay can be described thus: Ertapenem E-test MIC, KPC strains. Format: cell-based, Klebsiella pneumoniae. On the procedure: as §1, §9, §3, §4
Where [13] appears, read: TOTAL (ESBL+NDM+KPC), cloxacillin 200 mg/l and/or PAbetaN 25 mg/l, vs medium without either.
Where [14] appears, read: Pseudomonas IR strain, cloxacillin 200 mg/l and/or PAbetaN 25 mg/l, vs medium without either.
[15] abbreviates: PAbetaN added to cloxacillin, against MICs with cloxacillin, 17 strains already decreased >2 steps by cloxacillin.
Where [16] appears, read: PAbetaN alone in Mueller Hinton.
The mark [17] stands for this setting: KPC strains, cloxacillin 200 mg/l and/or PAbetaN 25 mg/l, vs medium without either.

For `Cc1onc(-c2ccccc2Cl)c1C(=O)N[C@@H]1C(=O)N2[C@@H]1SC(C)(C)[C@@H]2C(=O)O` [CLX, cloxacillin], the “number of strains: >2 MIC steps impact on ertapenem MIC” value is 1 in [1]; 2 in [2]; 17 in assay [3]; 11 in assay [8]; 3 in [11]. The “number of strains: No impact on ertapenem MIC” value (from here on “number of strains: No impact”) in assay [3] turned out to be 1; in assay [5] (setting [13]), 10; in assay [6], 2; in assay [8], 1; in assay [9] it was 1; in assay [12], 7. Besides, the “number of strains: ≦2 MIC steps impact on ertapenem MIC” value in assay [3] and in assay [7] (setting [14]) was 1 throughout. Also, the “IR strains whose MICs with ertapenem are reduced by more than 2 concentration steps” value in assay [3] (cloxacillin added to Mueller Hinton medium) was 16/19. Moreover, the “impact on growth of carbapenemase-producing strains” value in assay [4] (cloxacillin alone, at the 3 concentrations of faropenem tested) is listed as “little or no impact”. Further, the “number of strains: >2 MIC steps, positive MIC effect” value in assay [5] (setting [13]) and in [12] was 2 throughout. Moreover, the “number of strains: ≦2 MIC steps, negative MIC effect” value in [5] (setting [13]) and in assay [12] was 16 in each case. Moreover, the “number of strains: >2 MIC steps, negative MIC effect” value came to 1 in assay [5] (TOTAL (ESBL+NDM+KPC), cloxacillin 200 mg/l, vs medium without) and 1 in [12] (200 ug/mL). Moreover, the “number of carbapenemase-producing strains (NDM or KPC) with no impact on MIC with ertapenem” value in [5] (cloxacillin) amounted to 9. The “number of carbapenemase-producing strains with MIC slightly reduced” value in assay [5] (cloxacillin) stood at 16. Also, the MIC with ertapenem in medium with the named additive in assay [8] (E. cloacae IR strain unimpacted by cloxacillin alone) is > 32 µg/mL. Also, the “additional IR strains inhibited” value in [10] (addition of 50 mg/L cloxacillin) stood at 6; in assay [10] (addition of 200 mg/L cloxacillin), 9.
As for `C[C@@H](O)[C@H]1C(=O)N2C(C(=O)O)=C([C@H]3CCCO3)S[C@H]12` [Faropenem, faropenem], in assay [10] (faropenem alone, up to 16 mg/L), the “impact on growth of IR strains” value is “little impact”.
In the case of `NC(N)=NCCC[C@H](NC(=O)[C@@H](N)Cc1ccccc1)C(=O)Nc1ccc2ccccc2c1` [PAbetaN, phenylalanine-arginine-beta-naphthylamide] (H-Phe-Arg-βNA), the “number of strains: No impact” value in [1] stood at 1; in assay [2], 2; in [3], 17; in assay [5] (setting [13]), 5; in assay [6], 2; in assay [7] (setting [14]), 1. For the same compound, the “number of strains: No impact” value in [8] came to 10; in assay [11], 3; in assay [12] (setting [17]), 3. Besides, the “number of IR strains unimpacted” value in assay [3] (setting [15]) is given as 1. Besides, the “number of IR strains with MICs decreased by two additional MIC steps” value in assay [3] (setting [15]) is on record as 7. In addition, the “number of IR strains with less significantly decreased MICs (≦2 MIC steps)” value in assay [3] (setting [15]) came to 5. Moreover, the “impact of PAbetaN alone on ertapenem MICs of the majority of the IR strains” value in assay [3] (PAbetaN alone) was “no impact”. Further, the “number of strains: >2 MIC steps impact on ertapenem MIC” value in [3] and in assay [8] was 2 each time. Also, the “number of strains: ≦2 MIC steps impact on ertapenem MIC” value in [3] was found to be 0. Moreover, the “detection sensitivity with vs without PAbetaN” value in [4] (200 mg/L cloxacillin and 8 or 16 mg/L faropenem) is given as “does not change”; in assay [4] (8 or 16 mg/L faropenem with 50 or 100 mg/L cloxacillin), “greater”. Besides, the “number of strains with MIC with ertapenem slightly increased” value in assay [5] (setting [16]) came to 15. Moreover, the “number of strains with MIC with ertapenem very distinctly increased” value in assay [5] (setting [16]) was found to be 7. The “number of strains: >2 MIC steps, positive MIC effect” value in assay [5] (setting [13]) and in assay [12] (setting [17]) was 7 each time. Also, the “number of strains: ≦2 MIC steps, negative MIC effect” value in [5] (setting [13]) and in assay [12] (setting [17]) was 2 in each case. Besides, the “number of strains: ≦2 MIC steps, positive MIC effect” value worked out at 15 in assay [5] (setting [13]), 1 in assay [9] and 14 in assay [12] (setting [17]). Moreover, in assay [7] (P. aeruginosa IR strain), the “effect on ertapenem MIC of adding PAbetaN in addition to cloxacillin” value is listed as “not affected”. Also, in [8] (in the presence of PAbetaN alone), the MIC with ertapenem is > 32 µg/mL.
As for `C[C@@H](O)[C@H]1C(=O)N2C(C(=O)O)=C(S[C@@H]3CN[C@H](C(=O)Nc4cccc(C(=O)O)c4)C3)[C@H](C)[C@H]12` [ertapenem], the MIC with ertapenem in assay [8] (without PAbetaN) worked out at 6 µg/mL.
